Where two headings read alike, the source gives them in different places.

Results on 30 compounds are retold here after paper doi:10.1101/2024.08.25.609621 (bioRxiv, 2024).

The target in this experiment is SARS-CoV-2 NSP3 macrodomain (Mac1) (Severe acute respiratory syndrome coronavirus 2, UniProt P0DTD1). Nature of the experiment: biochemical. It counts as binding. The settings on record: for Ki: read-out: SARS CoV-2 macrodomain HTRF assay: Ki; for Ligand efficiency (binding enery per heavy atom): from SARS CoV-2 macrodomain HTRF assay.
The mark [1] stands for this setting: dose-response, read-out: SARS CoV-2 macrodomain HTRF assay: IC50.
Setting [2] is: Dose-response, SARS CoV-2 macrodomain HTRF assay, read-out: IC50.
Setting [3] is: Single dose, 200 μM, mean of three technical replicates.
Setting [4] is: Single dose, concentration 200 μM, read-out: Average % competition.
[5] abbreviates: preliminary screen, compound at 200 μM, mean of 3-4 technical replicates, read-out: % competition in HTRF assay.

Regarding `O=C1OC(CSC2CCC(O)C2)CN1C1CCCCC1` (stereo not drawn) [AVI-6019], the concentration for half-maximal inhibition (IC50) (read-out: IC50) is above 1000 µM.

With `Cc1c[nH]c2ncnc(NCC3(O)CCC(C)(C)CC3)c12` [AVI-4330], the “Ligand efficiency (binding enery per heavy atom)” value was 0.21. Moreover, the IC50 under setting [1] was found to be 650 µM. Moreover, where the note is “dose-response”, the Ki was 610 µM. Turning to `Nc1cc(N2CCC3CCCCC3C2)ncn1` (stereo not drawn) [AVI-339], the IC50 under setting [2] was above 1000 µM. This compound also displayed an Average % competition under setting [3] below 10%. The compound `Cc1noc(NCc2cc3ccccc3nc2O)n1` [AVI-322] yielded an Average % competition of 0%.

On to `O=C(NCCCN1C(=O)NC2(CCCC2)C1=O)c1ccc(O)nc1` [AVI-300], for which the Average % competition turned out to be 8%. The same measure, in the same setting: in the case of `Cc1nc2cc(NC(=O)C3CC(=O)Nc4ccccc43)ccc2o1` (stereo not drawn) [AVI-292] it was 0%. The same measure, in the same setting: in the case of `O=C(O)C1CCc2nnc(-c3ccc(F)cc3)n2C1` (stereo not drawn) [AVI-326] it was 15%.

`O=C1CC(C(=O)Nc2nc3c(s2)CCCC3)c2ccccc2N1` (stereo not drawn) [AVI-307] gave an Average % competition of 0%. Still for that read-out and setting: the figure for `CC1c2ccsc2CCN1C(=O)Cc1csc(-c2ccccc2)n1` (stereo not drawn) [AVI-287] is 0%. Turning to `O=c1[nH]c2ccccc2cc1CNc1nc(C2CC2)ns1` [AVI-346], the half-inhibitory concentration (IC50) under setting [2] was above 1000 µM. Moreover, the Average % competition under setting [3] is below 10%. `N#Cc1cnc(CSc2nc(-c3ccccc3)co2)nc1N` [AVI-332] came in with an Average % competition below 10%.

On to `O=C1COc2cc(C(=O)N3CC(C(=O)O)c4ccccc43)ccc2N1` (stereo not drawn) [AVI-289], for which the IC50 under setting [2] is above 1000 µM. The compound also gave an Average % competition under setting [3] of 21%. For `O=C(O)C(F)(F)F.OC1c2ccccc2CC1Nc1ncnc2[nH]ccc12` (stereo not drawn) [AVI-3634], the inhibition at 200 µM is below 10% under setting [4] and below 10% under setting [5]. Compound `O=C(O)C1CN(C(=O)c2ccc3[nH]nnc3c2)c2ccccc21` (stereo not drawn) [AVI-319] registered an Average % competition of 25%. Regarding `CC(C)CCC(CO)Nc1ncnc2[nH]ccc12.O=C(O)C(F)(F)F` (stereo not drawn) [AVI-3668], the inhibition at 200 µM turned out to be 38% under setting [4] and 38% under setting [5]. Turning to `CC(O)C1CCN(c2cc(N3CCC(c4ccccc4)CC3C)ncn2)C1` (stereo not drawn) [AVI-6016], where the note is “read-out: IC50”, the half-maximal inhibitory concentration (IC50) is above 1000 µM. The same measure, in the same setting: the figure for `Cc1ccc(C(=O)O)cc1NCc1ccc2nsnc2c1` [AVI-6018] is above 1000 µM; for `Cn1c(=O)[nH]c(=O)c2c1nc(Br)n2CC(=O)C1CCC(F)(F)CC1` [AVI-6020] it is above 1000 µM. `Cc1ncc(CN(C)C(=O)c2cccc(N)c2F)s1` [AVI-293]: the half-maximal inhibitory concentration (IC50) under setting [2] is above 1000 µM. This compound yielded an Average % competition under setting [3] of 14%.

For the compound `O=C(O)C(F)(F)F.OCC(Cc1cccc(F)c1)Nc1ncnc2[nH]ccc12` (stereo not drawn) [AVI-3706], the inhibition at 200 µM amounted to 77% under setting [4] and 77% under setting [5]. `CNC(=O)c1ccc(NC(=O)C2CC(=O)Nc3ccccc32)cc1` (stereo not drawn) [AVI-305] showed an Average % competition of 0%. Same read-out and setting: the figure for `CNS(=O)(=O)c1cc(C(=O)N2CCOc3ccccc32)n(C)c1` [AVI-309] is 0%. Still for that read-out and setting: the figure for `Cc1nnc2n1CCN(C(=O)CN1C(=O)CCOc3ccccc31)C2` [AVI-302] is 0%; for `Cc1ccc(O)c(C(=O)c2cnn3c(N)nnc3c2)c1` [AVI-310] it is 0%. In the case of `O[C@@H]1CNCC[C@H]1Nc1ncnc2[nH]ccc12` [AVI-613], the inhibition at 200 µM under setting [4] is below 10% and the inhibition at 200 µM under setting [5] was below 10%. `Nc1ccc(F)c(C(=O)NCc2cnc(O)nc2O)c1F` [AVI-312] registered an Average % competition below 10%.

As for `CC1CN(C(=O)c2ccccc2S(C)(=O)=O)c2cccnc2O1` (stereo not drawn) [AVI-294], the Average % competition is recorded as 13%. Same read-out and setting: in the case of `CC(=O)Nc1ccc(S(=O)(=O)CCCN2C(=O)CC(C)(C(C)C)C2=O)cc1` (stereo not drawn) [AVI-299] it was 19%. Same read-out and setting: the figure for `Cc1nc(N)ncc1C(=O)NCC(O)Cc1ccc(Cl)cc1` (stereo not drawn) [AVI-343] is below 10%. `OC1(CNc2ncnc3[nH]ccc23)CCC2(CC1)OCCO2` [AVI-4315]: the “Ligand efficiency (binding enery per heavy atom)” value was 0.23. In addition, the half-maximal inhibitory concentration (IC50) under setting [1] stood at 210 µM. Under “dose-response”, the Ki came out at 200 µM.
